Source: patent US20230292776A1, “GAS PHASE TREATMENT OF PRODUCE” (priority 2022, published 2023)

Tests used:
[1] = system: Penicillium digitatum (Pd); test: Antifungal activity of vapor against Penicillium digitatum (Pd) in wounded, infected mandarins; format: in vivo; settings: for effect on Pd mold: Example 5, 125 μL, assessed after 6 days
Method: Example 1. The antifungal activity of diallyl disulfide (DADS) vapor against Penicillium digitatum (Pd) was tested in mandarins. All samples were wounded by puncturing with a screw and infected by dispensing 1000 Pd spores suspended in 10 μL of water into each wound. The test groups consisted of mandarins that were: untreated; dipped in a solution of 1 g/L of imazalil; and exposed for 72 hours to the vapor of 3 mL of DADS in a Petri dish.
Example 2. The antifungal activity of allyl isothiocyanate (AITC) and DADS vapor was tested against Pd and Penicillium italicum (Pi) in mandarins. All samples were wounded by puncturing with a screw. Mandarins were infected by dispensing either 1000 Pd spores or 1000 Pi spores suspended in 10 μL into the wound. The test groups consisted of mandarins that were: uninfected and untreated; uninfected and treated by dipping in a solution of 1 g/L of imazalil; infected with Pd and untreated; infected with Pd and exposed to AITC; infected with Pd and exposed to DADS; infected with Pi and untreated; infected with Pi and exposed to AITC; and infected with Pi and exposed to DADS. Exposure to AITC or DADS consisted of exposing the mandarins for 72 hours to the vapor of 3 mL of the respective compound dispensed in a Petri dish.
Example 3. The antifungal activity of a reduced dose of AITC vapor against Pd in mandarins was tested. All samples were wounded by puncturing with a screw. Mandarins were infected by dispensing 1000 Pd spores suspended in 10 μL of water into each wound. The test groups consisted of mandarins that were: uninfected and untreated; infected with Pd and untreated; and exposed to the vapor of 500 μL of AITC in a Petri dish for 72 hours.
Example 4. The antifungal activity of a range of AITC vapor concentrations was tested against Pd in mandarins. All mandarins were wounded by puncturing with a screw and infected by dispensing 1000 Pd spores suspended in 10 μL of water in each wound. The fruit was then placed in an airtight container, a range of AITC volumes were disposed onto a Whatman filter paper disc, the disc was suspended in front of a battery-powered fan, and the container closed for 18 hours. The mandarins were then left at ambient temperature and high humidity for 6 days. The test groups were mandarins that were infected and untreated, and infected and treated with 62.5 μL 125 μL 250 μL and 500 μL on the filter paper disc. […] FIG. 6 is a bar graph showing incidence (% infected) for the test groups.
Example 5. The antifungal activity of a range of AITC vapor exposure times was tested to determine the effects against Pd in mandarins. All samples were wounded by puncturing with a screw. Mandarins were infected by dispensing 1000 Pd spores suspended in 10 μL of water in the wound. The fruit was then placed in an airtight container, 125 μL of AITC was dispensed onto a Whatman filter paper disc, the disc suspended in front of a battery-powered fan, and the container closed for 15 minutes to 2 hours. The test groups were then left at ambient temperature, high humidity, and assessed for Pd mold after 6 days. The test groups consisted of mandarins that were: uninfected and untreated; infected and untreated; infected and treated with 0.5 g/L imazalil; infected, treated with 125 μL of AITC on the filter paper, and exposed to the vapor for 15 minutes, 30 minutes, 1 hour, and 2 hours.

[2] = system: avocados; set-up: species or system avocado; settings: in vivo
Method: Example 11. The ripening characteristics of avocados exposed to AITC vapor was analyzed. Treatment groups consisted of avocados that were: exposed to the vapor of 125 μL of AITC in a Petri dish for 30 min and 18 hours; exposed to the vapor of 500 μL of AITC for 30 minutes and 18 hours; untreated and kept 18 hours in a bin; and treated with a coating agent. Two sets of the preceding test groups were studied. One set was treated when cold along with coated fruit (i.e., fruit treated with a coating agent (95 wt % glyceryl monostearate and 5 wt % sodium stearate) and another set was treated when warm (one day out of cold storage). Daily measurements were made of respiration and firmness (using a durometer). At the start of the test, the avocados were placed in cold storage. After one day, the cold treated avocados were treated with AITC directly after removal from cold storage. The coated group was treated at this time. The warm treated avocados were allowed to warm to room temperature. On the second day, measurements were begun on the cold treated avocados and AITC treatments began on the warm treated samples. On the third day, measurements began on the warm treated groups. […]
Example 23: The ripening characteristics of avocados exposed to AITC vapor, a coating agent (95 wt % glyceryl monostearate and 5 wt % sodium stearate), and AITC plus the coating agent was analyzed. […]

[3] = system: Penicillium digitatum (Pd); test: Antifungal activity of vapor against Penicillium digitatum (Pd) in wounded, infected mandarins; format: in vivo; settings: for effect on Pd mold: Example 5, assessed after 6 days; for infected mandarins: Example 6
[4] = system: Botrytis cinerea (Bc); test: Antifungal activity of AITC vapor and coating agent against Botrytis cinerea (Bc) in strawberries; format: in vivo; settings: Example 17; suspended strawberries; day 5

Row | Compound | Pd infection ([1]; Example 3, mandarins, vapor of 500 μL in a Petri dish for 72 hours) | severity of Pd infection ([1]; Example 4, 62.5 μL on filter paper disc, airtight container with fan, 18 hours, 6 days) | effect on Pd mold ([1]; 15 minute exposure) | effect on Pd mold ([1]; 2 hour exposure) | effect on avocado peel and firmness [2] | inhibition of fungal growth (Pd) ([3]; Example 2, mandarins, 72 hours vapor of 3 mL) | Pd mold growth ([3]; Example 4, doses of 125 μL, 250 μL & 500 μL, airtight container, 18 hours, 6 days) | effect on Pd mold ([3]; 125 μL (730 ppm), 30 min exposure) | effect on Pd mold ([3]; 125 μL, 1 hour exposure) | infected mandarins ([3]; 125 μL, 30 minutes, treated after 24 hours) | infected mandarins ([3]; 125 μL, 30 minutes, treated after 48 hours) | infected mandarins ([3]; 125 μL, 30 minutes, treated after 72 hours) | infected mandarins ([3]; 125 μL, 30 minutes, treated after 96 hours) | infected mandarins ([3]; 125 μL, 30 minutes, treated immediately after infection (0 hours)) | effect on Pd infection at lower dose ([3]; Example 19, 62.5 μL (50% of the minimum inhibitory concentration), 30 minutes) | reduction in incidence of mold versus untreated test group [4] | reduction of the incidence of Pd mold compared to the untreated samples ([1]; Example 1, mandarins, 72 hours vapor of 3 mL in a Petri dish) | reduction of the incidence of Pd mold compared to imazalil treated samples ([1]; Example 1, mandarins, 72 hours vapor of 3 mL, imazalil 1 g/L dip) | reduction of the incidence of Pd mold compared to untreated/infected test group ([1]; Example 2, mandarins, 72 hours vapor of 3 mL in a Petri dish)
1 | C=CCN=C=S [AITC, allyl isothiocyanate] | substantially prevented Pd infections | reduced the severity of infection relative to the untreated group | little effect on Pd mold | substantially eliminated the mold | causes darkening and thickening of the avocado peel and a prolonged feeling a firmness | approximately 100% | substantially prevented the growth mold | greatly reduced severity of Pd mold infection | greatly reduced severity and incidence of Pd mold | 8.3% | 25% | 16.7% | 81.6% | 58.3% | tends to reduce the severity of infection, but not eliminate the incidence of infection | over 80% |  |  | 
2 | C=CCSSCC=C [DADS, diallyl disulfide] |  |  |  |  |  |  |  |  |  |  |  |  |  |  |  |  | 95.8% | 19.1% | 85%
